Assay results published in patent publication US10703746B2, “Mutant IDH1 inhibitors useful for treating cancer” (THE UNITED STATES OF AMERICA, AS REPRESENTED BY THE …, priority 2014, dated 2020).

Legend:
[1] = target: IDH1 R132H (Homo sapiens, UniProt O75874, R132H); experiment: IDH1 R132H enzymatic assay (NADPH depletion coupled to diaphorase/resazurin); type: biochemical; settings: IDH1 R132H enzymatic inhibition, IC50 class
Protocol: (§1) Assays were conducted in a 1536-well black solid-bottom plate with a final assay volume of 9 μL.
Specifically, for IDH1 R132H, 3 μL of enzyme (4 mM β-ME, 0.0005 mg/mL IDH1 R132H, 150 mM NaCl, 20 mM Tris pH 7.5, 10 mM MgCl2, 0.05% BSA) were added to the plate, followed by the addition of 23 nL of test compound in DMSO. The plate was lidded and incubated at room temperature for 30 minutes at which time 3 μL of substrate were added (0.016 mM NADPH, 2 mM α-KG, 150 mM NaCl, 20 mM Tris pH 7.5, 10 mM MgCl2, 0.05% BSA). This reaction was incubated at room-temperature for 60 minutes at which time the detection mix was added (0.06 mg/mL diaphorase, 0.036 mM resazurin, 150 mM NaCl, 20 mM Tris pH 7.5, 10 mM MgCl2, 0.05% BSA). […]

[2] = target: IDH1 R132C (Homo sapiens, UniProt O75874, R132C); experiment: IDH1 R132C enzymatic assay (NADPH depletion coupled to diaphorase/resazurin); type: biochemical; settings: IDH1 R132C enzymatic inhibition, IC50 class
Sequence of IDH1 R132C (O75874 whole entry R132C): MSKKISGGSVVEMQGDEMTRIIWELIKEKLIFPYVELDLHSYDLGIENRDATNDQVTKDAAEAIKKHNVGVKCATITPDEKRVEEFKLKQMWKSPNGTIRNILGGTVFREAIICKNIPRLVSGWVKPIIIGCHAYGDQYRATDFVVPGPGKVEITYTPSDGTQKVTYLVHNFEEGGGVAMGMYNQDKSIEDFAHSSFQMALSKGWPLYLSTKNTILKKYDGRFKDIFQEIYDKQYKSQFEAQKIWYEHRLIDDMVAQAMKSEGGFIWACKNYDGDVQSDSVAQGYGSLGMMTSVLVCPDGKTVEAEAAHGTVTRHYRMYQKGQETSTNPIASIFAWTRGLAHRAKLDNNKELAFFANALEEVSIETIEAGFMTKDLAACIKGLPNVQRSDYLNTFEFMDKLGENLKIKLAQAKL
Protocol: as §1
For IDH1 R132C, 3 μL of enzyme (0.00032 mg/mL IDH1 […], 10% glycerol, 50 mM potassium phosphate pH 6.5, 5 mM MgCl2, 0.03% BSA) were added to the plate, followed by the addition of 23 nL of test compound in DMSO. The plate was lidded and incubated at room temperature for 30 minutes at which time 3 μL of substrate were added (0.012 mM NADPH, 0.6 mM α-KG, 10% glycerol, 50 mM potassium phosphate pH 6.5, 5 mM MgCl2, 0.03% BSA). […]

Sequence of IDH1 R132H (O75874 whole entry R132H): as the sequence (O75874 whole entry R132C) above, with C132H counted along it

Row | Structure (SMILES) | IC50 [1] | IC50 [2]
1 | COc1cccc(C)c1-n1c2c(cc(-c3nc(-c4ccc(Cl)cc4)cs3)c1=O)C(=O)CC(C)(C)C2 [Compound 52] | 1000 to 5000 nM | 1000 to 5000 nM
2 | CCc1cccc(CC)c1-n1c(C)c(C(=O)N2CCN(C)CC2)cc(-c2nc(-c3ccc(Cl)cc3)cs2)c1=O [Compound 53] | 1000 to 5000 nM | 300 to 1000 nM
3 | CCc1cccc(CC)c1-n1c(CC(C)C)c(C(=O)NC(C)(C)CO)cc(-c2nc(-c3ccc(Cl)cc3)cs2)c1=O [Compound 54] | 300 to 1000 nM | 300 to 1000 nM
4 | CC(C)n1c2c(cc(-c3nc(-c4ccc(Cl)cc4)cs3)c1=O)C(=O)CC(C)(C)C2 [Compound 55] | > 20000 nM | 1000 to 5000 nM
5 | CN(C)c1ccccc1-n1c2c(cc(-c3nc(-c4ccc(Cl)cc4)cs3)c1=O)C(=O)CC(C)(C)C2 [Compound 56] | 300 to 1000 nM | 300 to 1000 nM
6 | CC1(C)CC(=O)c2cc(-c3nc(-c4ccc(Cl)cc4)cs3)c(=O)n(-c3ccccc3C(F)(F)F)c2C1 [Compound 57] | 300 to 1000 nM | < 300 nM
7 | CCc1cccc(C(=O)O)c1-n1c2c(cc(-c3nc(-c4ccc(Cl)cc4)cs3)c1=O)C(=O)CC(C)(C)C2 [Compound 58] | 300 to 1000 nM | 1000 to 5000 nM
8 | COc1cccc(OC)c1-n1c2c(cc(-c3nc(-c4ccc(Cl)cc4)cs3)c1=O)C(=O)CC(C)(C)C2 [Compound 59] | 1000 to 5000 nM | 1000 to 5000 nM
9 | CCc1cccc(CC)c1-n1c(C)c(C(=O)N2CCN[C@H](C(=O)O)C2)cc(-c2nc(-c3ccc(Cl)cc3)cs2)c1=O [Compound 60] | 300 to 1000 nM | 300 to 1000 nM
10 | CCc1cccc(CC)c1-n1c(CC(C)C)c(C(=O)N2[C@H](C)CNC[C@@H]2C)cc(-c2nc(-c3ccc(Cl)cc3)cs2)c1=O [Compound 61] | 300 to 1000 nM | < 300 nM
11 | COc1ccc(OC)c(-n2c(C)ccc(-c3nc(-c4ccc(Cl)cc4)cs3)c2=O)c1 [Compound 62] | > 20000 nM | 5000 to 20000 nM
12 | CCc1cccc(CC)c1-n1c(CC(C)C)c(C(=O)N2CC(O)C2)cc(-c2nc(-c3ccc(Cl)cc3)cs2)c1=O [Compound 63] | 1000 to 5000 nM | 300 to 1000 nM
13 | CCc1cccc(CC)c1-n1c(CC(C)C)c(C(=O)N[C@H](C)CO)cc(-c2nc(-c3ccc(Cl)cc3)cs2)c1=O [Compound 64] | 1000 to 5000 nM | 300 to 1000 nM
14 | COc1ccc(OC)c(-n2c3c(cc(-c4cn(-c5ccc(Cl)cc5)cn4)c2=O)C(=O)CC(C)(C)C3)c1 [Compound 65] | > 20000 nM | 5000 to 20000 nM
15 | CCc1cccc(CC)c1-n1c(C)c(C(=O)N2CCCNCC2)cc(-c2nc(-c3ccc(Cl)cc3)cs2)c1=O [Compound 66] | 300 to 1000 nM | 300 to 1000 nM
16 | CCc1cccc(CC)c1-n1c(C)c(C(=O)N2CCCCC2C(=O)O)cc(-c2nc(-c3ccc(Cl)cc3)cs2)c1=O (stereo not shown) [Compound 67] | 1000 to 5000 nM | 5000 to 20000 nM
17 | COc1ccc(OC)c(-n2c(=O)c(-c3nc(-c4ccc(Cl)cc4)cs3)cc3c(O)cccc32)c1 [Compound 68] | > 20000 nM | > 20000 nM
18 | COc1ccc(OC)c(-n2c3c(cc(-c4nc(C5CCCCC5)cs4)c2=O)C(=O)CC(C)(C)C3)c1 [Compound 69] | 1000 to 5000 nM | 1000 to 5000 nM
19 | CCc1cccc(CC)c1-n1c(CC(C)C)c(C(=O)N2CCNC(C)(C)C2)cc(-c2nc(-c3ccc(Cl)cc3)cs2)c1=O [Compound 70] | 300 to 1000 nM | < 300 nM
20 | Cc1ccc(-c2csc(-c3cc4c(n(-c5ccccc5C(F)(F)F)c3=O)CC(C)(C)CC4=O)n2)cc1 [Compound 71] | 300 to 1000 nM | 300 to 1000 nM
21 | Cc1cc(-n2c3c(cc(-c4nc(-c5ccc(Cl)cc5)cs4)c2=O)C(=O)CC(C)(C)C3)n(C)n1 [Compound 72] | 1000 to 5000 nM | 1000 to 5000 nM
22 | COc1ccc(OC)c(-n2c3c(cc(-c4nc(-c5ccc(Cl)cc5)cs4)c2=O)CCC(C)(C)C3)c1 [Compound 73] | 1000 to 5000 nM | 1000 to 5000 nM
23 | CCc1cccc(CC)c1-n1c2c(cc(-c3nc(-c4ccc(Cl)cc4)cs3)c1=O)C(=O)NC2 [Compound 74] | 1000 to 5000 nM | 5000 to 20000 nM
24 | CCc1cccc(CC)c1-n1c(CC(C)C)c(C(=O)N2CCNCC2C(=O)O)cc(-c2nc(-c3ccc(Cl)cc3)cs2)c1=O (stereo not shown) [Compound 75] | 1000 to 5000 nM | 300 to 1000 nM
25 | CCc1cccc(CC)c1-n1c(CC(C)C)c(C(=O)N2CCNCC2)cc(-c2nc(-c3ccc(C)cc3)c(C)s2)c1=O [Compound 76] | < 300 nM | < 300 nM
26 | CCc1cccc(CC)c1-n1c(CC(C)C)c(C(=O)NCC(C)(C)O)cc(-c2nc(-c3ccc(Cl)cc3)cs2)c1=O [Compound 77] | 300 to 1000 nM | < 300 nM
27 | COc1ccc(OC)c(-n2cccc(-c3nc(-c4ccc(Cl)cc4)cs3)c2=O)c1 [Compound 78] | > 20000 nM | > 20000 nM
28 | O=c1[nH]cccc1-c1nc(-c2ccc(Cl)cc2)cs1 [Compound 79, 3-(4-(4-chlorophenyl)thiazol-2-yl)pyridin-2(1H)-one] | > 20000 nM | > 20000 nM
29 | CCc1cccc(CC)c1-n1c(CC(C)C)c(C(=O)N2CCNC(C)(C(=O)O)C2)cc(-c2nc(-c3ccc(Cl)cc3)cs2)c1=O (stereo not shown) [Compound 80] | 300 to 1000 nM | < 300 nM
30 | CCc1cccc(CC)c1-n1c(CC(C)C)c(C(=O)N2CCNCC2)cc(-c2nc(-c3ccccc3)c(C)s2)c1=O [Compound 81] | < 300 nM | 300 to 1000 nM

The next lines start with the values.

Row | IC50 [1] | IC50 [2] | Structure (SMILES)
31 | < 300 nM | < 300 nM | CCc1cccc(CC)c1-n1c(CC(C)C)c(C(=O)N2CCNCC2)cc(-c2nc(-c3ccc(Cl)cc3)c(C)s2)c1=O [Compound 82]
32 | 1000 to 5000 nM | 300 to 1000 nM | CCc1cccc(CC)c1-n1c(C)c(C(=O)N2CCN[C@@H](C(=O)OC)C2)cc(-c2nc(-c3ccc(Cl)cc3)cs2)c1=O [Compound 83]
33 | 300 to 1000 nM | < 300 nM | CCc1cccc(CC)c1-n1c(C(C)C)c(C(=O)N2CCNC(CO)C2)cc(-c2nc(-c3ccc(Cl)cc3)cs2)c1=O (stereo not shown) [Compound 84]
34 | 300 to 1000 nM | 300 to 1000 nM | CC1(C)CC(=O)c2cc(-c3nc(-c4ccc(C(F)(F)F)cc4)cs3)c(=O)n(-c3ccccc3C(F)(F)F)c2C1 [Compound 85]
35 | 300 to 1000 nM | < 300 nM | CCc1cccc(CC)c1-n1c(C(C)C)c(C(=O)N2CCNCC2)cc(-c2nc(-c3ccc(Cl)cc3)cs2)c1=O [Compound 86]
36 | 5000 to 20000 nM | 5000 to 20000 nM | CCc1cccc(CC)c1-n1c(CC(C)C)c(C(=O)N2CCNCC2)cc(-c2nc(-c3ccc(C(=O)N4CCOCC4)cc3)c(C)s2)c1=O [Compound 87]
37 | < 300 nM | < 300 nM | CCc1cccc(CC)c1-n1c(C(C)C)c(C(=O)N2CCNC(C(=O)O)C2)cc(-c2nc(-c3ccc(Cl)cc3)cs2)c1=O (stereo not shown) [Compound 88]
38 | 1000 to 5000 nM | 300 to 1000 nM | CCc1cccc(CC)c1-n1c(CC(C)C)c(C(=O)N2CCC(CO)C2)cc(-c2nc(-c3ccc(Cl)cc3)cs2)c1=O (stereo not shown) [Compound 89]
39 | < 300 nM | < 300 nM | CCc1cccc(CC)c1-n1c(CC(C)C)c(C(=O)N2CCNC(=O)C2)cc(-c2nc(-c3ccc(Cl)cc3)cs2)c1=O [Compound 91]
40 | 1000 to 5000 nM | 1000 to 5000 nM | CC1(C)CC(=O)c2cc(-c3nc(-c4ccc(Cl)cc4)cs3)c(=O)n(-c3cc(C(F)(F)F)ccc3N3CCOCC3)c2C1 [Compound 92]
41 | 5000 to 20000 nM | 5000 to 20000 nM | COc1ccc(OC)c(-n2c3c(cc(C(=O)NCc4ccc(Cl)cc4)c2=O)C(=O)CC(C)(C)C3)c1 [Compound 93]
42 | 1000 to 5000 nM | < 300 nM | CCc1cccc(CC)c1-n1c(CC(C)C)c(C(=O)N2CCC(CO)CC2)cc(-c2nc(-c3ccc(Cl)cc3)cs2)c1=O [Compound 94]
43 | 1000 to 5000 nM | 1000 to 5000 nM | COc1cc(N)ccc1-n1c2c(cc(-c3nc(-c4ccc(Cl)cc4)cs3)c1=O)C(=O)CC(C)(C)C2 [Compound 95]
44 | 5000 to 20000 nM | 1000 to 5000 nM | COc1ccc(OC)c(-n2c(=O)c(-c3nc(-c4ccc(Cl)cc4)cs3)cc3c(OC)nccc32)c1 [Compound 97]
45 | 1000 to 5000 nM | 5000 to 20000 nM | CCc1cccc(CC)c1-n1c(C(C)C)c(C(=O)O)cc(-c2nc(-c3ccc(Cl)cc3)cs2)c1=O [Compound 98]
46 | 1000 to 5000 nM | 300 to 1000 nM | CCc1cccc(CC)c1-n1c(C)c(C(=O)NC2CCNC2)cc(-c2nc(-c3ccc(Cl)cc3)cs2)c1=O (stereo not shown) [Compound 99]
47 | 1000 to 5000 nM | 1000 to 5000 nM | CCc1cccc(CC)c1-n1c(CO)c(C(=O)NC)cc(-c2nc(-c3ccc(Cl)cc3)cs2)c1=O [Compound 100]
48 | 1000 to 5000 nM | 300 to 1000 nM | CCc1cccc(CC)c1-n1c(C(C)C)c(C(=O)NC[C@@H](C)O)cc(-c2nc(-c3ccc(Cl)cc3)cs2)c1=O [Compound 101]
49 | 300 to 1000 nM | < 300 nM | CCc1cccc(CC)c1-n1c(CC(C)C)c(C(=O)N2CCN[C@@H](C(=O)O)C2)cc(-c2nc(-c3ccc(Cl)cc3)cs2)c1=O [Compound 102]
50 | 1000 to 5000 nM | 5000 to 20000 nM | CCc1cccc(CC)c1-n1c(C)c(C(=O)N2CCC(O)C2)cc(-c2nc(-c3ccc(Cl)cc3)cs2)c1=O (stereo not shown) [Compound 103]
